Legend:
Assay type in all cases: cell-based
[1] = target: T1, long form of human GPR120 (Homo sapiens, UniProt Q5NUL3); assay: Human GPR120 DiscoveRx PathHunter Beta-Arrestin assay, Procedure β-arrestin A
T1 construct: host or cells: PathHunter CHO-K1 GPR120 β-Arrestin Cell Line
Description: Human GPR120 DiscoveRx PathHunter® Beta-Arrestin Assay Assay Principle:
The binding of an agonist (medium/long chain fatty acids or small molecule agonists) to the G-protein-coupled receptor GPR120 activates phospholipase C, leading to release of intracellular Ca^+2 through the generation of inositol 1,4,5-trisphosphate (InsP3 or IP3). GPR120 activation can also trigger intracellular signaling via recruitment of Beta-Arrestin. In the present method, agonist-induced activation of the human GPR120 receptor is monitored through the use of PathHunter® CHO-K1 GPR120 Beta-Arrestin Cell Line engineered by DiscoveRx, as detailed below. The cell lines are designed to co-express both the ProLink/Enzyme Donor (PK)-tagged GPCR and the Enzyme […] (EA)-tagged Beta-Arrestin fusion proteins. Upon GPR120 receptor stimulation/activation, the EA-tagged Beta-Arrestin portion is translocated to the tagged receptor, where the two enzyme fragments are brought within close proximity. Under these conditions, these fragments can interact and form an active Beta-gal enzyme complex through Enzyme Fragment Complementation (EFC). This active Beta-gal complex can enzymatically hydrolyse the substrate to produce a detectable light signal; therefore, activation as a function of agonist concentration can be expressed as an EC50 value to determine relative compound activities. This in vitro assay therefore serves to assess compound agonist activity of the GPR120.
In Procedure β-arrestin A, the cell used were PathHunter® CHO-K1 GPR120 β-Arrestin Cell Line, expressing the long form of human GPR120 (Genbank accession number NM_181745), with 3000 cells per well.
The selected CHO-K1 GPR120 β-Arrestin cells were cultured in Ham's F12 media supplemented with 10% fetal bovine serum (FBS), 1% Glutamine, 1×p/s, 800 μg/mL G418 and 300 μg/mL Hygromycin B (for selection). Cell stocks were maintained and grown in a sub-confluent state using standard cell culture procedures. The day before the experiment, the cells were harvested with non-enzymatic cell dissociation buffer and re-suspended in complete growth media at the desired concentration. A Corning 384-plate was then seeded with the proper number of cells in a volume of 25 μL, per well. The seeded plates were incubated overnight at 37° C.
On the day of the experiment, the Assay Buffer containing (a) HBSS with Ca^++ and Mg^++, (b) 20 mM HEPES, and (c) 0.1% BSA stabilizer (pH 7.4) was prepared. The growth medium was gently removed from the cell plates and 20 μL of Assay Buffer added to each well. The plate was then incubated at 37° C. for 60 min. Test compounds were serially diluted in Assay Buffer to desired concentrations (more particularly to one or more of the following μM concentrations: 25, 12.5, 6.25, 3.12, 1.56, 0.78, 0.39, 0.19, 0.10, 0.05, 0.02, 0.01). Five μL of compound dilution was then added to each well and the plate incubated at 37° C. for 90 min. The detection reagents were prepared according to the manufacture's instruction. Twelve μL of the detection reagents were added to each well and the plate incubated at room temperature for 60 min.
The plates were read on an EnVision instrument, using Protocol name: Luminescence, Plate type: 384 Costar, Measurement height: 3 mm, Measurement time: 1 s, Aperture: 384 Plate aperture. The % Activity relative to the positive control was calculated using the following equation:
The % Activity values were plotted versus the concentration of test compound and fitted to a sigmoidal dose-response curve with a Hill slope=1 (fixed value) using nonlinear regression with GraphPad Prism 5.0 to calculate the EC50 values. The Fitting Equation was: Y=Bottom+(Top-Bottom)/(1+10^((Log EC50−X)*HillSlope)), where X is the log of the concentration and Y is the response.

[2] = target: T2, Human GPR120 short form (Homo sapiens, UniProt Q5NUL3); assay: Human GPR120 calcium flux assay, Procedure Calcium B (4200 cells/well)
T2 construct: expressed in transfected cells
T2 sequence (Q5NUL3 1-361): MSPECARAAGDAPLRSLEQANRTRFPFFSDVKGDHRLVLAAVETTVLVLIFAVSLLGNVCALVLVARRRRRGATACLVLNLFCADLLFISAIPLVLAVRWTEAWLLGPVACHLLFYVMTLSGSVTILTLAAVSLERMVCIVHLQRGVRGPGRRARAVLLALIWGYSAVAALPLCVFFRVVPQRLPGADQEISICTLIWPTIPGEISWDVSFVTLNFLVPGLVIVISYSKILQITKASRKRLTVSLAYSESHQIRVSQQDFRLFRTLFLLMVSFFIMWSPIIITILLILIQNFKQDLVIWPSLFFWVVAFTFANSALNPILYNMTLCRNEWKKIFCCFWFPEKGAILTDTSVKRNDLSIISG
Outline: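 Agonist EC50 came from a four-parameter fit of RFU (Fmax−Fmin) read over 300 s on FLIPR. Cells were HEK293 stably transfected with human GPR120 (NM_001195755.1) at 4200 per well, serum-starved 1 h and loaded with Fluo-4 NW dye with probenecid before ligand addition.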

[3] = target: T3, human GPR40 (Homo sapiens, UniProt O14842); assay: GPR40 calcium flux assay, human GPR40; details: HEK293 cells stably expressing GPR40; table does not say human or rat
T3 construct: expressed in transfected cells
T3 sequence (O14842 whole entry): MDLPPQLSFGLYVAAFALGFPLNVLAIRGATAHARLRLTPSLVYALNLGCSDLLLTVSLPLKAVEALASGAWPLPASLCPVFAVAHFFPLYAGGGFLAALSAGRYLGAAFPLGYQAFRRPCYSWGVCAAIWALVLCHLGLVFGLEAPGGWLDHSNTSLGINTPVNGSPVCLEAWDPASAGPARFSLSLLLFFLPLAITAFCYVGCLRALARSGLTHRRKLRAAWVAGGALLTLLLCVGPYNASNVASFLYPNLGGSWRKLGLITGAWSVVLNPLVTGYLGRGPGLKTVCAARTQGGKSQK
Outline: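 Cells preincubated 1 h at 37° C. in HBSS, 20 mM HEPES, 0.1% BSA, then Fluo 8 calcium dye 30 min at 37° C. and 15 min at room temperature.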

T1 sequence (Q5NUL3 1-377 isoform Q5NUL3-1): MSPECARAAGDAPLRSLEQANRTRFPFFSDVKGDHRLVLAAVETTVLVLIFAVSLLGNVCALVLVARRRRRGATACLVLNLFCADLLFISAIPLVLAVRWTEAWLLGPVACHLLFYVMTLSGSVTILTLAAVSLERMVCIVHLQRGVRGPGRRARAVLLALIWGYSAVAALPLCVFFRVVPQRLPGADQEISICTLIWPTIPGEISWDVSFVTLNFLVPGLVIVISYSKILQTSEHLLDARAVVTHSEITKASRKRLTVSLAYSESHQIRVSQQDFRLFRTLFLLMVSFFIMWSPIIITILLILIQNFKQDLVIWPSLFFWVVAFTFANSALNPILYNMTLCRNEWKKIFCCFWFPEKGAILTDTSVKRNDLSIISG
T1 sequence (P32121 whole entry partner): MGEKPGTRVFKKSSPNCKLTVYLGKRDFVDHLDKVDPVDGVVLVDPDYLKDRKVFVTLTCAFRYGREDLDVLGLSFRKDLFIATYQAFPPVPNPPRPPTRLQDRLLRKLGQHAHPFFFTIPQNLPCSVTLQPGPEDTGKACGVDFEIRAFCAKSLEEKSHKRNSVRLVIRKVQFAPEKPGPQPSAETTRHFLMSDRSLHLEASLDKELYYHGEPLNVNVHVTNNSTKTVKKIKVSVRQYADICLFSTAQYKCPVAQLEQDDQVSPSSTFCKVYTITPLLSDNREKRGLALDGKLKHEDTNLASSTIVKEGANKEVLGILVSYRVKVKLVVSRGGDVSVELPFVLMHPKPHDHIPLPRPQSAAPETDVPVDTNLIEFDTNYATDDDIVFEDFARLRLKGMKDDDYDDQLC

Row | SMILES | EC50 [1] [nM] | EC50 [2] [nM] | EC50 [3] [nM]
1 | Cc1ccc(C2=C(COc3ccc(CCC(=O)O)c(C)c3C)CC(F)(F)C2)cc1F [Compound 172, 3-[4-[[4,4-difluoro-2-(3-fluoro-4-methyl-phenyl)cyclopenten-1-yl]methoxy]-2,3-dimethyl-phenyl]Propanoic Acid] | 32 | 42 | > 5000
2 | Cc1c(CCC(=O)O)ccc(OCC2=C(c3ccc(F)cc3F)CC(F)(F)C2)c1C [Compound 173, 3-[4-[[2-(2,4-difluorophenyl)-4,4-difluoro-cyclopenten-1-yl]methoxy]-2,3-dimethyl-phenyl]Propanoic Acid] | 40 | 49 | > 5000
3 | Cc1cc(CCC(=O)O)ccc1OCC1=C(c2ccc(F)c(F)c2)CC(F)(F)C1 [Compound 179, 3-[4-[[2-(3,4-difluorophenyl)-4,4-difluoro-cyclopenten-1-yl]methoxy]-3-methyl-phenyl]Propanoic Acid] | 289 | 31 | > 5000
4 | Cc1cc(CCC(=O)O)ccc1OCC1=C(c2ccc(F)cc2)CC(F)(F)C1 [Compound 180, 3-[4-[[4,4-difluoro-2-(4-fluorophenyl)cyclopenten-1-yl]methoxy]-3-methyl-phenyl]Propanoic Acid] | 78 | 26 | > 5000
5 | Cc1cc(CCC(=O)O)ccc1OCC1=C(c2ccc(F)cc2F)CC(F)(F)C1 [Compound 182, 3-[4-[[2-(2,4-difluorophenyl)-4,4-difluoro-cyclopenten-1-yl]methoxy]-3-methyl-phenyl]Propanoic Acid] | 104 | 32 | > 5000
6 | O=C(O)CCc1cc(F)c(OCC2=C(c3ccc(F)cc3)CC(F)(F)C2)c(F)c1 [Compound 183, 3-[4-[[4,4-difluoro-2-(4-fluorophenyl)cyclopenten-1-yl]methoxy]-3,5-difluoro-phenyl]Propanoic Acid] | 185 | 51 | > 5000
7 | O=C(O)CCc1cc(F)c(OCC2=C(c3ccc(F)c(F)c3)CC(F)(F)C2)c(F)c1 [Compound 184, 3-[4-[[2-(3,4-difluorophenyl)-4,4-difluoro-cyclopenten-1-yl]methoxy]-3,5-difluoro-phenyl]Propanoic Acid] | 431 | 91 | > 5000
8 | N#CC1CC(COc2c(F)cc(CCC(=O)O)cc2F)=C(c2ccc(Cl)cc2)C1 (stereo not drawn) [Compound 185, 3-[4-[[2-(4-chlorophenyl)-4-cyano-cyclopenten-1-yl]methoxy]-3,5-difluoro-phenyl]Propanoic Acid] | 1440 | 360 | 3440
9 | O=C(O)CCc1ccc(OCC2=C(c3ccc(F)cc3)CC(F)C2)cc1C(F)(F)F (stereo not drawn) [Compound 186, 3-[4-[[4-fluoro-2-(4-fluorophenyl)cyclopenten-1-yl]methoxy]-2-(trifluoromethyl)phenyl]Propanoic Acid] | 1790 | 453 | 382
10 | COC1CC(COc2c(F)cc(CCC(=O)O)cc2F)=C(c2ccc(Cl)cc2)C1 (stereo not drawn) [Compound 187, 3-[4-[[2-(4-chlorophenyl)-4-methoxy-cyclopenten-1-yl]methoxy]-3,5-difluoro-phenyl]Propanoic Acid] | 596 | 137 | 3320
11 | O=C(O)CCc1ccc(OCC2=C(c3ccc(F)cc3)CC(F)(F)C2)cc1C(F)(F)F [Compound 188, 3-[4-[[4,4-difluoro-2-(4-fluorophenyl)cyclopenten-1-yl]methoxy]-2-(trifluoromethyl)phenyl]Propanoic Acid] | 548 | 411 | 142
12 | Cc1cc(CCC(=O)O)ccc1OCC1=C(c2cccc(F)c2)CC(F)(F)C1 [Compound 191, 3-[4-[[4,4-difluoro-2-(3-fluorophenyl)cyclopenten-1-yl]methoxy]-3-methyl-phenyl]Propanoic Acid] | 259 | 27 | > 5000
13 | Cc1cc(CCC(=O)O)ccc1OCC1=C(c2ccccc2)CC(F)(F)C1 [Compound 193, 3-[4-[(4,4-difluoro-2-phenyl-cyclopenten-1-yl)methoxy]-3-methyl-phenyl]Propanoic Acid] | 133 | 30 | > 5000
14 | Cc1ncc(C2=C(COc3ccc(CCC(=O)O)cc3C)CC(F)(F)C2)s1 [Compound 199, 3-[4-[[4,4-difluoro-2-(2-methylthiazol-5-yl)cyclopenten-1-yl]methoxy]-3-methyl-phenyl]Propanoic Acid] | 369 | 210 | 1470
15 | O=C(O)CCc1ccc(OCC2=C(c3ccc(F)cc3)CC(F)(F)C2)c(Cl)c1 [Compound 203, 3-[3-chloro-4-[[4,4-difluoro-2-(4-fluorophenyl)cyclopenten-1-yl]methoxy]phenyl]Propanoic Acid] | 56 | 80 | > 5000
16 | Cc1cc(CCC(=O)O)cc(F)c1OCC1=C(c2ccc(F)cc2)CC(F)(F)C1 [Compound 204, 3-[4-[[4,4-difluoro-2-(4-fluorophenyl)cyclopenten-1-yl]methoxy]-3-fluoro-5-methyl-phenyl]Propanoic Acid] | 359 | 125 | > 5000
17 | Cc1c(CCC(=O)O)ccc(OCC2=C(c3ccco3)CCC2)c1C [Compound 210, 3-[4-[[2-(2-furyl)cyclopenten-1-yl]methoxy]-2,3-dimethyl-phenyl]Propanoic Acid] | 110 | 137 | > 5000
18 | O=C(O)CCc1ccc(OCC2=C(c3ccc(F)cc3)CC(F)(F)C2)c(F)c1 [Compound 214, 3-[4-[[4,4-difluoro-2-(4-fluorophenyl)cyclopenten-1-yl]methoxy]-3-fluoro-phenyl]Propanoic Acid] | 84 | 78 | > 5000
19 | O=C(O)CCc1cc(F)c(OCC2=C(c3cccc(F)c3)CC(F)(F)C2)c(F)c1 [Compound 215, 3-[4-[[4,4-difluoro-2-(3-fluorophenyl)cyclopenten-1-yl]methoxy]-3,5-difluoro-phenyl]Propanoic Acid] | 282 | 75 | > 5000
20 | O=C(O)CCc1cc(F)c(OCC2=C(c3ccc(F)cc3F)CC(F)(F)C2)c(F)c1 [Compound 216, 3-[4-[[2-(2,4-difluorophenyl)-4,4-difluoro-cyclopenten-1-yl]methoxy]-3,5-difluoro-phenyl]Propanoic Acid] | 169 | 75 | > 5000

From US11230526B1, “Cylcoalkenyl derivatives useful as agonists of the GPR120 and/or GPR40 receptors” (Janssen Pharmaceutica NV, priority 2018, dated 2022)
